≈ marks a conversion by molar mass, not a printed value. Where a name gives a salt, the structure may show the parent alone. Read-outs that look alike come from different tables or passages of the source.
Legend:
Type in all cases: cell-based
[1] = system: E. coli J2175; experiment: MIC, agar dilution; settings: Escherichia coli, 18 h, read-out: MIC
[2] = system: E. coli UBMS 90-4 Tet M; experiment: microbe, parasite or virus in culture; settings: Escherichia coli, UBMS904TETM, 18 h
[3] = system: E. coli BAJ9003 IMP MUT; experiment: microbe, parasite or virus in culture; settings: Escherichia coli, BAJ9003IMPMUT, 18 h
[4] = system: S. aureus IVES 2943; experiment: MIC, agar dilution; settings: Staphylococcus aureus, IVES2943, 18 h
[5] = system: S. aureus IVES 1983; experiment: MIC, agar dilution; settings: Staphylococcus aureus, IVES1983, 18 h
[6] = system: E. coli PRP1 Tet A; experiment: microbe, parasite or virus in culture; settings: Escherichia coli, PRP1TETA, 18 h
[7] = system: S. aureus UBMS 88-5 Tet M; experiment: microbe, parasite or virus in culture; settings: Staphylococcus aureus, UBMS885TETM, 18 h
[8] = system: E. coli MC 4100 TNIOC Tet B; experiment: microbe, parasite or virus in culture; settings: Escherichia coli, 18 h
[9] = system: S. aureus NEMC 8769; experiment: MIC, agar dilution; settings: Staphylococcus aureus, NEMC8769, 18 h
[10] = system: S. aureus UBMS 88-7 Tet K; experiment: microbe, parasite or virus in culture; settings: Staphylococcus aureus, UBMS887TETK, 18 h
[11] = system: S. aureus UBMS 90-3; experiment: MIC, agar dilution; settings: Staphylococcus aureus, UBMS903, 18 h
[12] = system: E. coli J3272 Tet D; experiment: microbe, parasite or virus in culture; settings: Escherichia coli, J3272TETD, 18 h
[13] = system: E. coli UBMS 90-5; experiment: microbe, parasite or virus in culture; settings: Escherichia coli, UBMS905, 18 h, E. coli UBMS 90-5; read-out: MIC
[14] = system: E. coli J3272 Tet C; experiment: microbe, parasite or virus in culture; settings: Escherichia coli, J3272TETC, 18 h
[15] = system: S. hemolyticus AVHAH 88-3; experiment: MIC, agar dilution; settings: Streptococcus pyogenes, AVHAH883, 18 h
[16] = system: E. coli UBMS 89-1 Tet M; experiment: microbe, parasite or virus in culture; settings: Escherichia coli, UBMS891TETM, 18 h
[17] = system: S. aureus ATCC 29213; experiment: MIC, agar dilution; settings: Staphylococcus aureus, ATCC29213, 18 h, S. aureus ATCC 29213
[18] = system: X. maltophilia NEMC 87210; experiment: MIC, agar dilution; settings: Stenotrophomonas maltophilia, NEMC87210, 18 h
[19] = system: E. faecalis ATCC 29212; experiment: MIC, agar dilution; settings: Enterococcus faecalis, ATCC29212, 18 h, E. faecalis ATCC 29212; read-out: MIC
[20] = system: S. aureus UBMS 90-2 Tet M; experiment: microbe, parasite or virus in culture; settings: Staphylococcus aureus, UBMS902TETM, 18 h
[21] = system: Ps. aeruginosa ATCC 27853; experiment: MIC, agar dilution; settings: Pseudomonas aeruginosa, ATCC27853, 18 h, Ps. aeruginosa ATCC 27853; read-out: MIC
[22] = system: E. coli UBMS 88-1 Tet B; experiment: microbe, parasite or virus in culture; settings: Escherichia coli, UBMS881TETB, 18 h
[23] = system: E. coli UBMS 89-2 Tet sens.; experiment: MIC, agar dilution; settings: Escherichia coli, 18 h
[24] = system: S. aureus UBMS 88-4; experiment: MIC, agar dilution; settings: Staphylococcus aureus, UBMS884, 18 h
[25] = system: E. coli MC 4100 Tet sens.; experiment: MIC, agar dilution; settings: Escherichia coli, 18 h
[26] = system: S. aureus SMITH (MP); experiment: MIC, agar dilution; settings: Staphylococcus aureus, 18 h
[27] = system: Enterococcus 12201; experiment: MIC, agar dilution; settings: Enterococcus, 12201, 18 h
[28] = system: E. coli #311 (MP); experiment: MIC, agar dilution; settings: Escherichia coli, 18 h
[29] = system: E. coli ATCC 25922; experiment: MIC, agar dilution; settings: Escherichia coli, ATCC25922, 18 h
[30] = system: S. marcescens FPOR 8733; experiment: MIC, agar dilution; settings: Serratia marcescens, FPOR8733, 18 h
[31] = system: S. aureus ROSE (MP); experiment: MIC, agar dilution; settings: Staphylococcus aureus, 18 h
[32] = system: S. aureus UBMS 90-1 Tet M; experiment: microbe, parasite or virus in culture; settings: Staphylococcus aureus, UBMS901TETM, 18 h
[33] = S. aureus IVES 2943, read-out: MIC

How did the MIC [1] turn out when CC(C(=O)Nc1ccc2c(c1O)C(=O)C1=C(O)[C@]3(O)C(=O)C(C(N)=O)=C(O)[C@@H](N(C)C)C3CC1C2)N(C)C (stereo partly drawn) [B, [4S-(4alpha,12aalpha)]-4-(Dimethylamino)-9-[[2-(dimethylamino)-1-oxopropyl]amino]-1,4,4a,5,5a,6,11,12a-octahydro-3,10,12,12a-tetrahydroxy-1,11-dioxo-2-naphthacenecarboxamide dihydrochloride] was run?
The MIC was 1 µg/mL.

And the MIC [2]?
The MIC was 0.5 µg/mL.

And the MIC [3]?
The MIC was 0.25 µg/mL.

And the MIC [4, 33]?
Its MIC is 1 µg/mL.

And the MIC ([5]; S. aureus IVES 1983, read-out: MIC)?
The MIC was 1 µg/mL.

And the MIC [6]?
Its MIC is 2 µg/mL.

And the MIC [7]?
The MIC was 0.5 µg/mL.

And the MIC [8]?
Its MIC is 0.5 µg/mL.

And the MIC ([9]; read-out: MIC)?
Its MIC is 0.06 µg/mL.

And the MIC [10]?
The MIC was 1 µg/mL.

And the MIC ([11]; S. aureus UBMS 90-3, read-out: MIC)?
The MIC was 0.06 µg/mL.

And the MIC [12]?
Its MIC is 0.5 µg/mL.

And the MIC [13]?
The MIC was 0.5 µg/mL.

What about the MIC [14] of the same molecule?
The MIC was 1 µg/mL.

And the MIC [15]?
Its MIC is 1 µg/mL.

And the MIC [16]?
The MIC was 0.5 µg/mL.

And the MIC ([17]; read-out: MIC)?
The MIC was 0.25 µg/mL.

What about the MIC [18] of the same molecule?
Its MIC is 2 µg/mL.

And the MIC [19]?
The MIC was 0.25 µg/mL.

What about the MIC [20] of the same molecule?
The MIC was 0.25 µg/mL.

And the MIC [21]?
Its MIC is 32 µg/mL.

And the MIC [22]?
The MIC was 1 µg/mL.

And the MIC [23]?
Its MIC is 1 µg/mL.

What about the MIC [24] of the same molecule?
The MIC was 0.25 µg/mL.

And the MIC [25]?
The MIC was 0.25 µg/mL.

And the MIC [26]?
Its MIC is 0.25 µg/mL.

What about the MIC [27] of the same molecule?
The MIC was 0.25 µg/mL.

And the MIC [28]?
The MIC was 0.5 µg/mL.

What about the MIC [29] of the same molecule?
The MIC was 0.5 µg/mL.

And the MIC [30]?
Its MIC is 8 µg/mL.

What about the MIC [31] of the same molecule?
The MIC was 4 µg/mL.

What about the MIC [32] of the same molecule?
The MIC was 0.5 µg/mL.

CN(C)[C@@H]1C(O)=C(C(N)=O)C(=O)[C@@]2(O)C(O)=C3C(=O)c4c(ccc(NC(=O)CN5CCCCC5)c4O)CC3CC12 (stereo partly drawn) [I, [7S-(7alpha,10aalpha)]-N-9-(Aminocarbonyl)-7-(dimethylamino)-5,5a,6,6a,7,10,10a,12-octahydro-1,8,10a,11-tetrahydroxy-10,12-dioxo-1-piperidineacetamide dihydrochloride] was tested. Which MIC [1] did it give?
Its MIC is 0.5 µg/mL.

And the MIC [2]?
The MIC was 0.5 µg/mL.

What about the MIC [3] of the same molecule?
The MIC was 0.12 µg/mL.

And the MIC [4]?
The MIC was 1 µg/mL.

And the MIC [5]?
Its MIC is 1 µg/mL.

What about the MIC [6] of the same molecule?
Its MIC is 1 µg/mL.

And the MIC [7]?
Its MIC is 0.5 µg/mL.

What about the MIC [8] of the same molecule?
The MIC was 1 µg/mL.

And the MIC ([9]; read-out: MIC)?
Its MIC is 0.5 µg/mL.

And the MIC [10]?
The MIC was 0.5 µg/mL.

What about the MIC [11] of the same molecule?
The MIC was 0.25 µg/mL.

And the MIC [12]?
The MIC was 0.5 µg/mL.

What about the MIC [13] of the same molecule?
The MIC was 0.5 µg/mL.

What about the MIC [14] of the same molecule?
Its MIC is 1 µg/mL.

And the MIC ([15]; S. hemolyticus AVHAH 88-3, read-out: MIC)?
The MIC was 2 µg/mL.

What about the MIC [16] of the same molecule?
The MIC was 0.25 µg/mL.

And the MIC ([17]; read-out: MIC)?
Its MIC is 0.5 µg/mL.

What about the MIC [18] of the same molecule?
The MIC was 0.5 µg/mL.

And the MIC [19]?
Its MIC is 0.25 µg/mL.

What about the MIC [20] of the same molecule?
Its MIC is 0.25 µg/mL.

What about the MIC [21] of the same molecule?
The MIC was > 32 µg/mL.

And the MIC [22]?
Its MIC is 1 µg/mL.

What about the MIC [23] of the same molecule?
Its MIC is 0.5 µg/mL.

What about the MIC [24] of the same molecule?
Its MIC is 0.5 µg/mL.

What about the MIC [25] of the same molecule?
Its MIC is 0.25 µg/mL.

What about the MIC [26] of the same molecule?
Its MIC is 0.25 µg/mL.

What about the MIC [27] of the same molecule?
Its MIC is 0.25 µg/mL.

What about the MIC [28] of the same molecule?
The MIC was 0.5 µg/mL.

What about the MIC [29] of the same molecule?
The MIC was 0.5 µg/mL.

And the MIC [30]?
Its MIC is 8 µg/mL.

And the MIC ([31]; read-out: MIC)?
The MIC was 4 µg/mL.

And the MIC [32]?
The MIC was 0.5 µg/mL.

Which results are given for CC(C(=O)Nc1ccc2c(c1O)C(=O)C1=C(O)[C@]3(O)C(=O)C(C(N)=O)=C(O)[C@@H](N(C)C)C3CC1C2)N1CCCC1 (stereo partly drawn) [P]?
MIC [1]: 1 µg/mL (≈ 1.8 µM); MIC [2]: 1 µg/mL (≈ 1.8 µM); MIC [3]: 0.25 µg/mL (≈ 0.451 µM); MIC [4, 33]: 2 µg/mL (≈ 3.61 µM); MIC [5]: 1 µg/mL (≈ 1.8 µM); MIC [6]: 2 µg/mL (≈ 3.61 µM); MIC [7]: 0.5 µg/mL (≈ 0.902 µM); MIC [8]: 2 µg/mL (≈ 3.61 µM); MIC [9]: 0.5 µg/mL (≈ 0.902 µM); MIC [10]: 1 µg/mL (≈ 1.8 µM); MIC [11]: 0.25 µg/mL (≈ 0.451 µM); MIC [12]: 0.5 µg/mL (≈ 0.902 µM); MIC [13]: 0.5 µg/mL (≈ 0.902 µM); MIC [14]: 1 µg/mL (≈ 1.8 µM); MIC [15]: 4 µg/mL (≈ 7.21 µM); MIC [16]: 0.5 µg/mL (≈ 0.902 µM); MIC [17]: 0.5 µg/mL (≈ 0.902 µM); MIC [18]: 4 µg/mL (≈ 7.21 µM); MIC [19]: 0.25 µg/mL (≈ 0.451 µM); MIC [20]: 0.5 µg/mL (≈ 0.902 µM); MIC [21]: > 32 µg/mL; MIC [22]: 2 µg/mL (≈ 3.61 µM); MIC [23]: 1 µg/mL (≈ 1.8 µM); MIC [24]: 0.5 µg/mL (≈ 0.902 µM); MIC [25]: 0.25 µg/mL (≈ 0.451 µM); MIC [26]: 0.5 µg/mL (≈ 0.902 µM); MIC ([27]; Enterococcus 12201, read-out: MIC): 0.25 µg/mL (≈ 0.451 µM); MIC [28]: 1 µg/mL (≈ 1.8 µM); MIC [29]: 1 µg/mL (≈ 1.8 µM); MIC [30]: 16 µg/mL (≈ 28.8 µM); MIC ([31]; read-out: MIC): 8 µg/mL (≈ 14.4 µM); MIC [32]: 0.5 µg/mL (≈ 0.902 µM)

Reference: patent US5567692A, “9-[(substituted glycyl) amido)]-6-demethyl-6-deoxytetracyclines” (priority 1995, dated 1996)
